# Data from US20060276440A1, “Treatment of inflammatory disorders” (priority 2005, published 2006).
# Legend:
# [1] = test system: JAK/STAT pathway (STAT 1, 3, 5); test: STAT phosphorylation (FACS) and nuclear translocation (immunostaining) in SW1353 cells; format: cell-based, human; details: 20 nM, OSM/IL-1 activation
# Method: SW1353 cells were seeded and treated as described above. For the flow cytometric analysis of intracellular phopho-proteins, trypsinized SW1353 cells were fixed in 1.5% formaldehyde at room temperature (RT), and permeabilized in ice cold methanol for minimum of 10 minutes. After 2× wash in wash buffer (D-PBS, with 1% FBS), cells were stained with phospho-specific antibodies (5 ug/ml final) for 20 minutes, washed 2× in wash buffer, followed by 20 minutes incubation with phycoerythrin-conjugated anti-mouse IgG (10 ug/ml final). Following 2× wash in wash buffer, cells were analyzed by flow cytometry.
# For immunohistochemistry of intracellular phospho-proteins, fixation and permeabilization conditions were identical to the ones used for flow cytometric analysis. For the visualization of the phosphor-specific proteins, ImmPRESS Universal Antibody kit (Vector Laboratories, Burlingame, Calif.) was used.
# The cellular and molecular mechanisms by which CA4 repressed pro-MMP-13 production, using SW1353 as the model system were investigated. […] The pathways that mediate OSM and IL-1 signal transduction were then examined. Using inhibitors that target key components of the pathways, it was shown that JAK/STAT, p38, JNK, and NF-κB pathways were important for OSM/IL-1-stimulated pro-MMP-13 production (FIG. 13B-E), but not ERK or Cox1/2 pathways (data not shown). […]
# [2] = test system: CD3; test: GFP-reporter Jurkat T-cell line, anti-CD3 antibody-upregulated reporter; format: cell-based; details: at 20 nM; data not shown
# [3] = test system: MMP-13; test: OSM-stimulated pro-MMP-13 production in dedifferentiated primary chondrocytes; format: cell-based; details: FIG. 12D, listed as CA4
# [4] = test system: OSM signaling; test: OSM-responsive SW1353 Sentinel cell line luciferase reporter; format: cell-based, human; details: FIG. 12C, listed as CA4
# Excerpt: Taken together, it appears that CA4 interferes as well with OSM signal transduction that led to the synergistic upregulation of pro-MMP-13 by OSM/IL-1 in SW1353 cells.
smiles,measurement,setting,value
"COc1ccc(/C=C\c2cc(OC)c(OC)c(OC)c2)cc1O [Combretastatin A4 (1), (Z)-5-(3,4,5-trimethoxystyryl)-2-methoxyphenol]","STAT 1, 3, 5 phosphorylation",[1]; FACS,did not affect
same,STAT nuclear translocation,[1]; immunostaining,did not affect
same,effect on CD3-mediated increase of GFP fluorescence,[2],did not have any effect
same,OSM-stimulated pro-MMP-13 production,[3],inhibited OSM-stimulated pro-MMP-13 production dose-dependently
same,OSM-induced reporter luciferase activity,[4],dose-dependently inhibited the reporter luciferase activity
